One assay has as its target T1, Caspase-3 (Homo sapiens) (UniProt P42574).
T1 sequence (whole entry): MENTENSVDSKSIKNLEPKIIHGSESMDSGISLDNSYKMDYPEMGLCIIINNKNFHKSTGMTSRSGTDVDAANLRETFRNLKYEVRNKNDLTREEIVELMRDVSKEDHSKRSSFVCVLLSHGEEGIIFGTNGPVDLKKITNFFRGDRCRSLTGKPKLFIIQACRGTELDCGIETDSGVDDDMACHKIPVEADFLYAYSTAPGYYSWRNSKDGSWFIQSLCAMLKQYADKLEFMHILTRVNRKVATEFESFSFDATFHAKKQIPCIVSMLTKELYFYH
The experiment in a line: Induction of autoactivation of procaspase-3 relative to control.

A short description of assay [1]: (§1) Activation of rat liver AMPK assessed as concentration required to induce 50 % activity.
For assay [2], the species on record is Rattus norvegicus. The assay is described as §1.
For assay [3], the species on record is Rattus norvegicus. The assay can be described thus: Activation of rat liver AMPK alpha subunit assessed as concentration required to induce 50 % activity.
The species named for assay [4] is Rattus norvegicus. The assay can be described thus: Activation of rat liver AMPK relative to basal activity level. It is filed as tissue-based.

Molecule `C=CCc1cccc(/C=N/NC(=O)CN2CCN(Cc3ccccc3)CC2)c1O` yielded a fold change (FC) at Caspase-3 (Homo sapiens) of 3.

For the molecule `Nc1ncnc2c1ncn2[C@@H]1O[C@H](COP(=O)(O)O)[C@@H](O)[C@H]1O` [ADENOSINE PHOSPHATE], the concentration at half-maximal activity (AC50) in assay [1] worked out at 56 µM.

As to `N#Cc1c(O)c2c(-c3ccc(-c4ccccc4O)cc3)csc2[nH]c1=O`, the Activity in the assay filed under Rattus norvegicus [2] is 0.8 µM.

As for `Cc1cc(-c2ccc(/C=C3\S/C(=N\c4ccc(Cl)c(C(=O)O)c4)NC3=O)o2)c([N+](=O)[O-])cc1C`, the Activity came to 8 µM in the assay listed under Rattus norvegicus [3] and 0.3 µM in the assay listed under Rattus norvegicus [2]. Also, in the assay filed under Rattus norvegicus [4], the fold change (FC) was 1.5.

One may read the AC50 as the midpoint of the concentration-response curve, whichever way the signal moves.

For the origin of these results see ChEMBL document CHEMBL1240408, “Turning enzymes ON with small molecules” (Nat Chem Biol, 2010).
